Data from ChEMBL document CHEMBL1136541, “D-Phe-Pro-Arg type thrombin inhibitors: unexpected selectivity by modification of the P1 moiety” (Bioorg Med Chem Lett, 2003).

Target: T1, Serine protease 1 (Bos taurus, UniProt P00760)
T1 sequence (P00760 whole entry): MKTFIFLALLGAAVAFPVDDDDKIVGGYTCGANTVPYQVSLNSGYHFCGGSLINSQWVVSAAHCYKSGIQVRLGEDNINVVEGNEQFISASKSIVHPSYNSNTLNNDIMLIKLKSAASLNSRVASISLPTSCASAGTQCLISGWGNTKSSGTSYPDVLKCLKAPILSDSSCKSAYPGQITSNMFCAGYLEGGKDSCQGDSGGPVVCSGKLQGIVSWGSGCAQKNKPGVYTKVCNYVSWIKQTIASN
Assay: In vitro inhibitory activity against trypsin

Q: For Cn1c(CNC(=O)[C@@H]2C=CCN2C(=O)[C@@H](CC2CCCCC2)NCC(=O)O)ccc1C(=N)N, which IC50 is on record?
A: The IC50 was 16 nM.

Q: Which IC50 does the source give for Cn1cc(CNC(=O)[C@@H]2C=CCN2C(=O)[C@@H](CC2CCCCC2)NCC(=O)O)cc1C(=N)N here?
A: Its IC50 is 306 nM.
